Patent US12570612B2, “Substituted nitrogen heterocyclic compound and anesthetic effect thereof” (priority 2019, dated 2026)
Where two headings read alike, the source gives them in different places.

Key:
[1] = test system: Sprague-Dawley rats; assay: Pharmacological effect and adverse reactions under the equivalent dose (2ED50), Group D compounds; type: in vivo; conditions: for Righting reflex duration / Sedation duration / Onset time: 2ED50, tail vein, rats, n=8; for Adverse reaction: Convulsions / Adverse reaction: Cough, broken-winded / Adverse reaction: Euphoria / Adverse reaction: Four limbs rigidity / Adverse reaction: Red urine / Adverse reaction: Slower breathing, Tetany convulsion / Adverse reaction: Systemic stiffness, Convulsions, Opisthotonus / Adverse reaction: Tongue stretching / Adverse reaction: Tremor: equivalent dose (2 × ED50), number of rats of n = 8
Description: Evaluation index: onset time: from the completion of drug injection to the disappearance of forepaw righting reflex in rats; Duration of anesthesia: the time from the disappearance of rat forepaw righting reflex to the recovery of rat forepaw righting reflex; Recovery time of anesthesia: the time from the […] to complete recovery;

[2] = test system: SD rats; conditions: for After the infusion is stopped: Righting reflex recovery time / Recovery time after stopping infusion: after 1 hour continuous infusion at 2 times the MIR; for After the infusion is stopped: Righting reflex recovery time / Recovery time after stopping infusion / Sedation onset time: SD rats; for Sedation onset time: continuous tail vein infusion at 2 times the MIR
Description: Experimental Methods: Adult male SD rats with body weight ranging from 250 g to 350 g were selected for continuous infusion test.
Evaluation indexes: the time from the beginning of continuous infusion to the […] of sedation in rats; the time from the cessation of infusion to the restoration of the forepaw turning reflex after 1 hour of continuous infusion; the time from the cessation of infusion to the complete restoration of rats after 1 hour of continuous infusion.

[3] = test system: Sprague-Dawley rats; assay: animal or person; type: in vivo; conditions: rats; for ED50: LORR, up and down method, tail vein, class symbols
Description: Evaluating indicator: The end point of anesthesia: the disappearance of forepaw righting reflex (lorr) was used as the end point of anesthesia; General anesthesia effect: the disappearance of forepaw righting reflex in rats lasting for 30 seconds is taken as the index of general anesthesia effect; Anesthesia recovery index: the recovery of rat forepaw righting reflex was used as the index of anesthesia recovery.

[4] = test system: Sprague-Dawley rats; type: in vivo; conditions: tail vein
[5] = continuous infusion 2 x MIR 1 hour, rats affected/rats
[6] = Rattus norvegicus, read-out: ED50

| Structure (SMILES) | Righting reflex duration [1] [min] | Sedation duration [1] [min] | Onset time ([1]; unit min) [min] | Adverse reaction: Convulsions [1] | Adverse reaction: Cough, broken-winded [1] | Adverse reaction: Euphoria [1] | Adverse reaction: Four limbs rigidity [1] | Adverse reaction: Red urine [1] | Adverse reaction: Slower breathing, Tetany convulsion [1] | Adverse reaction: Systemic stiffness, Convulsions, Opisthotonus [1] | Adverse reaction: Tongue stretching [1] | Adverse reaction: Tremor [1] | ED50 [3, 6] [mg/kg] | Approximate therapeutic index [3] | Minimal lethal dose [4] [mg/kg] | Onset time ([1]; unit s) [min] | further results |
| --- | --- | --- | --- | --- | --- | --- | --- | --- | --- | --- | --- | --- | --- | --- | --- | --- | --- |
| COC(OC)C(=O)c1cc(F)nn1[C@H](C)c1ccccc1 [Compound D25] | 1.52 ± 0.26 | 6.82 ± 0.27 | <1 | 0 | 0 | 0 | 1 | 8 | 0 | 0 | 0 | 2 | 0.5 to 1 | >10.2 | >8.4 |  | After the infusion is stopped: Righting reflex recovery time [2]: 16 to 24 min; Recovery time after stopping infusion [2]: 30 to 40 min; Types and incidence of adverse reactions: Hindlimb rigidity [2, 5]: Hindlimb rigidity(1/6); Types and incidence of adverse reactions: Red urine [2, 5]: 6/6; Types and incidence of adverse reactions: Tremor [2, 5]: 2/6; Sedation onset time [2]: <5 min |
| COC(OC)(OC)C(=O)c1c(F)cnn1[C@H](C)c1ccccc1 [Compound D29] | 1.24 ± 0.06 | 2.26 ± 0.59 |  | 0 | 0 | 0 | 3 | 8 | 0 | 0 | 0 | 4 | 0.04 to 0.5 | >4.1 | >3.6 | <0.5 | After the infusion is stopped: Righting reflex recovery time [2]: 12 to 20 min; Recovery time after stopping infusion [2]: 20 to 25 min; Types and incidence of adverse reactions: Red urine [2, 5]: Red urine(6/6), Tongue; Types and incidence of adverse reactions: Tongue stretching [2, 5]: stretching(4/6); Sedation onset time [2]: <5 min |
| CCOC(OCC)C(=O)c1cncn1[C@H](C)c1ccccc1 [Compound D88] | 1.86 ± 1.02 | 7.08 ± 1.06 |  | 0 | 0 | 0 | 1 | 8 | 0 | 7 | 1 | 1 | 1 to 2 | >10.3 | >2.6 | <0.5 |  |
| COC(OC)(OCC(C)(C)C)C(=O)c1ccnn1[C@H](C)c1ccccc1 [Compound D6] | 1.33 ± 0.19 | 7.35 ± 1.45 | <1 | 0 | 0 | 0 | 1 | 8 | 0 | 0 | 0 | 2 | 2 to 6 | >7.3 | >12.4 |  |  |
| CCOC(OC)(OC)C(=O)c1cncn1[C@H](C)c1ccccc1 [Compound D78] | 4.02 ± 1.35 | 7.29 ± 1.20 |  | 0 | 0 | 0 | 0 | 8 | 0 | 2 | 1 | 0 | 0.5 to 1 | >6.2 | >6.8 | <0.5 |  |
| C=CCOCC(OC)(OC)C(=O)c1cncn1[C@H](C)c1ccccc1 [Compound D75] | 1.59 ± 0.67 | 5.28 ± 0.68 |  | 0 | 0 | 0 | 0 | 8 | 0 | 0 | 0 | 0 |  | >5.4 | >11.2 | <0.5 | ED50 [3]: +++++ (+++++ indicates that the measured ED50 is greater than 6.00 mg/kg (excluding 6.00 mg/kg)) |
| CC(C)CCOC(=O)C(=O)c1cncn1[C@H](C)c1ccccc1 [Compound D82] | 0.98 ± 0.31 | 6.70 ± 1.46 | <1 | 0 | 0 | 0 | 2 | 8 | 0 | 0 | 1 | 0 | 2 to 6 | >6.3 | >7.8 |  |  |
| CCOC(OC)(OCC)C(=O)c1cncn1[C@H](C)c1ccccc1 [Compound D79] | 1.75 ± 0.76 | 5.84 ± 1.46 |  | 6 | 0 | 0 | 0 | 8 | 0 | 0 | 0 | 1 | 0.5 to 1 | >6.4 | >2.7 | <0.5 |  |
| CCSC(OC)(OC)C(=O)c1ccnn1[C@H](C)c1ccccc1 [Compound D2] | 5.82 ± 1.87 | 13.71 ± 3.89 | <1 | 0 | 2 | 3 | 0 | 8 | 1 | 0 | 2 | 8 | 2 to 6 | >6.6 | >10.5 |  |  |
| COC(OC)(OC)C(=O)c1c(F)ncn1[C@H](C)c1ccccc1 [Compound D93] | 2.50 ± 0.30 | 6.89 ± 0.80 |  | 0 | 0 | 0 | 0 | 8 | 0 | 8 | 1 | 0 | 0.04 to 0.5 | >25.1 | >1.8 | <0.5 |  |
| COC(OC)(OC(C)C)C(=O)c1ccnn1[C@H](C)c1ccccc1 [Compound D4] | 0.98 ± 0.35 | 7.28 ± 1.56 | <1 | 0 | 0 | 0 | 0 | 8 | 0 | 0 | 0 | 0 | 2 to 6 | >5.0 | >10.1 |  |  |
| C#CCOCC(OC)(OC)C(=O)c1cncn1[C@H](C)c1ccccc1 [Compound D74] | 1.29 ± 0.49 | 4.78 ± 1.24 | <1 | 0 | 0 | 0 | 1 | 8 | 0 | 0 | 0 | 1 |  | >16.6 | >10.2 |  | ED50 [3]: +++++ (+++++ indicates that the measured ED50 is greater than 6.00 mg/kg (excluding 6.00 mg/kg)) |
